{"source": "patent US5686626A", "about": "“1,3-dihydro-1-amino-2H-indol-2-ones” (Hoechst Marion Roussel, Inc., priority 1995, dated 1997)", "key": {"[1]": {"assay": "Dark Avoidance Assay (scopolamine induced memory deficit reversal)", "assay_type": "in vivo, mice", "conditions": "Mus musculus, read-out: % of Animals With Scopolamine Induced Memory Deficit Reversal; for responders at 3 mg/kg: dose 3.0 mg/kg of body wt; for responders at 0.63 mg/kg: dose 0.63 mg/kg of body wt; for responders at 1.25 mg/kg: dose 1.25 mg/kg of body wt; for responders at 0.3 mg/kg: dose 0.3 mg/kg of body wt", "method": "The compounds of the present invention are also useful in the treatment of various memory dysfunctions characterized by decreased cholinergic function such as Alzheimer's Disease.\nIn this assay, mice are tested for their ability to remember an unpleasant stimulus for a period of 24 hours. A mouse is placed in a chamber that contains a dark compartment; a strong incandescent light drives it to the dark compartment, where an electric shock is administered through metal plates on the floor. The animal is removed from the testing apparatus and tested again, 24 hours later, for the ability to remember the electric shock.\nIf scopolamine, an anticholinergic that is known to cause memory impairment, is administered before an animal's initial exposure to the test chambers, the animal re-enters the dark compartment shortly after being placed in the test chamber 24 hours later. The effect of scopolamine is blocked by an active test compound, resulting in a greater interval before re-entry into the dark compartment.\nThe results for an active compound are expressed as the percent of a group of animals in which the effect of scopolamine is blocked, as manifested by an increased interval between being placed in the test chamber and re-entering the dark compartment. Presented in Table 2 is the activity of some of the compounds of the invention in this assay."}, "[2]": {"assay": "phenyl-para-quinone writhing assay in mice (analgesia)", "assay_type": "in vivo", "conditions": "for ED50: Mus musculus, sc, read-out: ED50 of Writhing (subcutaneous dose at which 50% of the phenyl-para-quinone induced writhing is inhibited)"}, "[3]": {"assay": "supramaximal electroshock (SES) assay (anticonvulsant activity)", "assay_type": "in vivo, male mouse (Charles River, CD-1)", "conditions": "Mus musculus, ip, 0.5 h; male mice, i.p., 30 minute pretreat; read-out: ED50 (anticonvulsant, protection from extensor tonus)", "method": "The compounds of the invention are also useful as anticonvulsants due to their anticonvulsant activity in mammals. Anticonvulsant activity is measured in the male mouse using the supramaximal electroshock (SES) assay described in Arch. Int. Pharmacodyn. 92:97-107, 1952. In this procedure, groups of male mice (Charles River, CD-1, 18-30 gm) are used. Drugs are prepared using distilled water and, if insoluble, a surfactant is added. Control animals receive vehicle. Drugs are routinely administered interperitoneally (i.p.) The dosage volume is 10 ml/kg. A primary screen is given a 30 minute pretreat. The animals' eyes are placed across the output terminals of an A.C. shocker that delivers 206 volts rms for 300 msec. Electrode paste coats the animals' eyes at the point of contact with the terminals. […] Protection is expressed as normalized percent inhibition relative to vehicle control."}, "[4]": {"conditions": "mice, dose 1.0 mg/kg of body wt, retest after 24 hours"}}, "note": "Where two headings read alike, the source gives them in different places."}
{"smiles": "CCCN(c1ccncc1)N1C(=O)C2(CCN(C)CC2)c2ccccc21", "note": "[1'Methyl-1-(propyl-4-pyridinylamino)spiro-[3H-indole-3,4'-piperidin]-2(1 H)-one]", "values": [{"measurement": "responders at 1 mg/kg", "setting": "[1]; 24 h", "result": 20, "unit": "%"}]}
{"smiles": "O=C1Cc2ccccc2N1Nc1ccncc1F", "note": "[1,3-Dihydro-1-(3-fluoro-4-pyridinylamino)-2H-indol-2-one]", "values": [{"measurement": "responders at 1 mg/kg", "setting": "[1]; [4]", "result": 27, "unit": "%"}, {"measurement": "responders at 3 mg/kg", "setting": "[1]; mice, retest after 24 hours", "result": 27, "unit": "%"}]}
{"smiles": "O=C1Cc2ccccc2N1Nc1ccncc1", "note": "[1,3-Dihydro-1-(4-pyridinylamino)-2H-indol-2-one]", "values": [{"measurement": "ED50", "setting": "[2]", "result": 0.69, "unit": "mg/kg"}, {"measurement": "responders at 0.31 mg/kg", "setting": "[1]; mice, dose 0.31 mg/kg of body wt, retest after 24 hours", "result": 27, "unit": "%"}, {"measurement": "responders at 0.63 mg/kg", "setting": "[1]; mice, retest after 24 hours", "result": 27, "unit": "%"}, {"measurement": "responders at 1.25 mg/kg", "setting": "[1]; mice, retest after 24 hours", "result": 27, "unit": "%"}]}
{"smiles": "CCCN(c1ccncc1)N1C(=O)Cc2ccccc21", "note": "[1,3-Dihydro-1-(propyl-4-pyridinylamino)-2H-indol-2-one]", "values": [{"measurement": "% Inhibition of Writhing (% decrease in writhing at a given dose)", "setting": "[2]; 20 mg/kg, s.c.", "result": -58, "unit": "%"}, {"measurement": "responders at 1.25 mg/kg", "setting": "[1]; mice, retest after 24 hours", "result": 27, "unit": "%"}, {"measurement": "ED50", "setting": "[3]", "result": 15.9, "unit": "mg/kg"}]}
{"smiles": "CCCN(c1ccncc1F)N1C(=O)Cc2ccccc21", "note": "[1,3-Dihydro-1-[(3-fluoro-4-pyridinyl)-propylamino]-2H-indol-2-one]", "values": [{"measurement": "responders at 0.3 mg/kg", "setting": "[1]; mice, retest after 24 hours", "result": 20, "unit": "%"}, {"measurement": "responders at 3 mg/kg", "setting": "[1]; mice, retest after 24 hours", "result": 20, "unit": "%"}]}
{"smiles": "CC1C(=O)N(Nc2ccncc2F)c2ccccc21", "note": "(stereo not drawn) [1,3-Dihydro-1-[(3-fluoro-4-pyridinyl)amino]-3-methyl-2H-indol-2-one hemifumarate]", "values": [{"measurement": "responders at 0.3 mg/kg", "setting": "[1]; mice, retest after 24 hours", "result": 27, "unit": "%"}, {"measurement": "responders at 3 mg/kg", "setting": "[1]; mice, retest after 24 hours", "result": 20, "unit": "%"}]}
{"smiles": "CCCN(c1ccncc1)N1C(=O)C(C)(C)c2ccccc21", "note": "[1,3-Dihydro-3,3-dimethyl-1-(propyl-4-pyridinylamino)-2H-indol-2-one]", "values": [{"measurement": "responders at 0.3 mg/kg", "setting": "[1]; mice, retest after 24 hours", "result": 20, "unit": "%"}, {"measurement": "ED50", "setting": "[3]", "result": 30.7, "unit": "mg/kg"}]}
{"smiles": "CCCN(c1ccncc1)N1C(=O)C2(Cc3ccccc3C2)c2ccccc21", "note": "[1,3-dihydro-1'-(propyl-4-pyridinylamino)spiro[2H-indene-2,3'-[3H]indol]-2'(1'H)-one]", "values": [{"measurement": "responders at 3 mg/kg", "setting": "[1]; mice, retest after 24 hours", "result": 25, "unit": "%"}]}
{"smiles": "CCCN(c1ccncc1F)N1C(=O)C(C)(C)c2ccccc21", "note": "[1,3-dihydro-3,3-dimethyl-1-[4-(3-fluoropyridinyl)propylamino]2H-indol-2-one]", "values": [{"measurement": "responders at 0.3 mg/kg", "setting": "[1]; mice, retest after 24 hours", "result": 21, "unit": "%"}, {"measurement": "responders at 1 mg/kg", "setting": "[1]; [4]", "result": 27, "unit": "%"}]}
{"smiles": "NN1C(=O)C(Cc2ccncc2)(Cc2ccncc2)c2ccccc21", "note": "[1-Amino-3,3-bis(4-pyridinylmethyl)-1,3-dihydro-2H-indol-2-one]", "values": [{"measurement": "responders at 0.3 mg/kg", "setting": "[1]; mice, retest after 24 hours", "result": 21, "unit": "%"}]}
{"smiles": "CCC1(c2ccccc2)C(=O)NC(=O)NC1=O", "note": "[Phenobarbital, reference compound]", "values": [{"measurement": "ED50", "setting": "[3]", "result": 8.4, "unit": "mg/kg"}]}
{"smiles": "CC[C@@H]1C(=O)OC[C@@H]1Cc1cncn1C", "note": "[Pilocarpine, reference compound]", "values": [{"measurement": "responders at 1.25 mg/kg", "setting": "[1]; mice, retest after 24 hours", "result": 19, "unit": "%"}]}
{"smiles": "O=C(O)c1ccccc1O", "note": "[Salicylic Acid, reference compound]", "values": [{"measurement": "ED50", "setting": "[2]", "result": 3.28, "unit": "mg/kg"}]}
{"smiles": "Nc1c2c(nc3ccccc13)CCCC2", "note": "[Tacrine, reference compound]", "values": [{"measurement": "responders at 0.63 mg/kg", "setting": "[1]; mice, retest after 24 hours", "result": 13, "unit": "%"}]}
